Measurements taken from ChEMBL document CHEMBL1131247, “Substituted naphthofurans as hallucinogenic phenethylamine-ergoline hybrid molecules with unexpected muscarinic antagonist activity” (J Med Chem, 1998).
Values joined by “and” are separate entries in the source; they are usually repeats but may differ in a detail not shown here. Equal entries are not always repeated. Active and inactive are the calls of the source. The rule behind the calls is not given here.

Experiments:
Rattus norvegicus [1] = species on record: Rattus norvegicus; test: Percentage of animals emitting 50 presses on the LSD appropriate lever during the test period; type: functional
Rattus norvegicus [2] = test: Percentage of animals failing to emit 50 presses on either lever within the 15-min test period in rat at 0.365 mg/kg (1 uM/kg); type: functional
Rattus norvegicus [3] = test: Percentage of animals failing to emit 50 presses on either lever within the 15-min test period in rat at 0.78 mg/kg (2 umol/kg); type: functional
Rattus norvegicus [4] = test: Percentage of animals failing to emit 50 presses on either lever within the 15-min test period in rat at 1.46 mg/kg (4 uM/kg); type: functional
[5] = target: T1, 5-hydroxytryptamine receptor 2A (Homo sapiens, UniProt P28223); test: Binding ability of compound at cloned human 5-hydroxytryptamine 2A receptor using [125 I]DOI as radioligand
[6] = target: T2, 5-hydroxytryptamine receptor 2B (Homo sapiens, UniProt P41595); test: Binding ability of compound at cloned human 5-hydroxytryptamine 2B receptor using [3H]5-HT 2B as radioligand
Rattus norvegicus [7] = test: Percentage of animals failing to emit 50 presses on either lever within the 15-min test period in rat at 5.84 mg/kg (16 uM/kg); type: functional
Rattus norvegicus [8] = species on record: Rattus norvegicus; test: (§1) Effective dose for LSD-like behavioral effect in rats; Not significant; type: functional, organism-based
Rattus norvegicus [9] = species on record: Rattus norvegicus; test: as §1; type: functional, organism-based; remark: listed apart in the source
Rattus norvegicus [10] = test: Percentage of animals failing to emit 50 presses on either lever within the 15-min test period in rat at 2.92 mg/kg (8 uM/kg); type: functional
[11] = target: T3, 5-hydroxytryptamine receptor 2C (Homo sapiens, UniProt P28335); test: Binding ability of compound at cloned human 5-hydroxytryptamine 2C receptor using [125 I]DOI as radioligand
T3 sequence (P28335 whole entry): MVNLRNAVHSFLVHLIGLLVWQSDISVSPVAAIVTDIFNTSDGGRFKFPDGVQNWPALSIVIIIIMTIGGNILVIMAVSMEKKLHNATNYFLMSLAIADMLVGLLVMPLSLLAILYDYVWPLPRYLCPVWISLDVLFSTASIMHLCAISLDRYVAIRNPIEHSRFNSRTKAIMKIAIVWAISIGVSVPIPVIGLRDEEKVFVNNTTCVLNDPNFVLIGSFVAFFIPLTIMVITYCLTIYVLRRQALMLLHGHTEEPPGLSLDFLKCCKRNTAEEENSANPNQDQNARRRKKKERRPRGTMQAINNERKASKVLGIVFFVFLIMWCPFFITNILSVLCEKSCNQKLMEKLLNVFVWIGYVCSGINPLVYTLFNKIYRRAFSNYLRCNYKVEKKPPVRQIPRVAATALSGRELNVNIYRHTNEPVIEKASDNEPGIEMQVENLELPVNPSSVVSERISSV

[12] = target: 5-hydroxytryptamine receptor 2A (Rattus norvegicus, UniProt P14842); test: Affinity at [3H]ketanserin-labeled 5-hydroxytryptamine 2A receptor in rat brain homogenate was determined; type: tissue-based
[13] = target: Muscarinic acetylcholine receptor M3 (Rattus norvegicus) (UniProt P08483)
Description: Compound was evaluated for the affinity at the cloned radio labelled Muscarinic acetylcholine receptor M3

[14] = target: T4, Muscarinic acetylcholine receptor M1 (Mus musculus) (UniProt P12657)
T4 sequence (whole entry): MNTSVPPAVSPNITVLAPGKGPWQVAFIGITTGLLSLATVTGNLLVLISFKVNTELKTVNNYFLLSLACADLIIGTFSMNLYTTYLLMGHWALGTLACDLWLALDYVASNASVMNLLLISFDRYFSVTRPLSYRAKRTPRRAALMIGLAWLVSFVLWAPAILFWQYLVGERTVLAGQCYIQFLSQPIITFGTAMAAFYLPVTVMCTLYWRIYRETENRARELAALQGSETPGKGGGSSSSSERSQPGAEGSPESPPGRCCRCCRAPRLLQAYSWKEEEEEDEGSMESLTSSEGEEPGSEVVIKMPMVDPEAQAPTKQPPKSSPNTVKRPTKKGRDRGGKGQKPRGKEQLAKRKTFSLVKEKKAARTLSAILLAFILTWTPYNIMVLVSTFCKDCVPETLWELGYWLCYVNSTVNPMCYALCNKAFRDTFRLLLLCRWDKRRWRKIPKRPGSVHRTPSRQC
Description: Compound was evaluated for the affinity at the cloned radio labelled Muscarinic acetylcholine receptor M1

[15] = target: T5, Muscarinic acetylcholine receptor M2 (Rattus norvegicus) (UniProt P10980)
T5 sequence (whole entry): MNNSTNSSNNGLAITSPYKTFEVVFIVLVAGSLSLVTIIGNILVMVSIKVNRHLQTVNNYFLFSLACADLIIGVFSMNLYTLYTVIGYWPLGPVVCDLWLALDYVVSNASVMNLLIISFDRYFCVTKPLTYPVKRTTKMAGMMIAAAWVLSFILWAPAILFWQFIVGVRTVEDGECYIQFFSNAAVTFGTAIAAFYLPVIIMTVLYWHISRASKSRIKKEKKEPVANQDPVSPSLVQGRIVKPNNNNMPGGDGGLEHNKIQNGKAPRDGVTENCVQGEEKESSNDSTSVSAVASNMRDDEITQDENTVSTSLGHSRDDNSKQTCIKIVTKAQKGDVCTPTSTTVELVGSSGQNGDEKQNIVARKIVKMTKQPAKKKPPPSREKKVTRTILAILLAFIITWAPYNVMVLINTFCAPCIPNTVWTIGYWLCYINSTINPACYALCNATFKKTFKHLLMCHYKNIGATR
Description: Compound was evaluated for the affinity at the cloned radio labelled Muscarinic acetylcholine receptor M2

[16] = target: T6, 5-hydroxytryptamine receptor 1A (Rattus norvegicus, UniProt P19327); test: Affinity at [3H]8-OH-DPAT-labeled 5-hydroxytryptamine 1A receptor in rat brain homogenate was determined; type: tissue-based
T6 sequence (P19327 whole entry): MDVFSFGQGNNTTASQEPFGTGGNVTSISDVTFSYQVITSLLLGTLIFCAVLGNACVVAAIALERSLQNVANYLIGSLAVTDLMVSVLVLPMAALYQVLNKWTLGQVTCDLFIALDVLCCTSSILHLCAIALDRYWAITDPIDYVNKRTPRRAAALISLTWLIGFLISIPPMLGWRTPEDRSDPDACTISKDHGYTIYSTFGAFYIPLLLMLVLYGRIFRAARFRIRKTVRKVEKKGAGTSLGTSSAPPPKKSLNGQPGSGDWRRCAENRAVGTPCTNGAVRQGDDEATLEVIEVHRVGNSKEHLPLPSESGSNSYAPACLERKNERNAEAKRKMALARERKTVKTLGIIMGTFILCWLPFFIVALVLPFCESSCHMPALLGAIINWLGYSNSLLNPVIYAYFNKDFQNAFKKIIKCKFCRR

[17] = target: T7, Muscarinic acetylcholine receptor M5 (Rattus norvegicus) (UniProt P08911)
T7 sequence (whole entry): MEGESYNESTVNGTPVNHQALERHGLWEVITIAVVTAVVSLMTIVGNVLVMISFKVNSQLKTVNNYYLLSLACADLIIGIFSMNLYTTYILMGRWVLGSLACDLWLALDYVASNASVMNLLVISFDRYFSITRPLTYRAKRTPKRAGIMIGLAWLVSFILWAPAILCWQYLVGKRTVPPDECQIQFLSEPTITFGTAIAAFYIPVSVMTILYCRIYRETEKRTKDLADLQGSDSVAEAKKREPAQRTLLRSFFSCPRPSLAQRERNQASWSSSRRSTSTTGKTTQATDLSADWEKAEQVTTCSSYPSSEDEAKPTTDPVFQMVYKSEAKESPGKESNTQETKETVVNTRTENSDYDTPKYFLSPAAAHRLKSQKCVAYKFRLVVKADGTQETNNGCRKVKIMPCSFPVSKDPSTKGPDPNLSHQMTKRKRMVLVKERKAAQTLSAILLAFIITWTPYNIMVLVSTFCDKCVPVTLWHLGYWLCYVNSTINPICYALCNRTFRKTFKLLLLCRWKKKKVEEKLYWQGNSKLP
Description: Compound was evaluated for the affinity at the cloned radio labelled Muscarinic acetylcholine receptor M5

[18] = target: T8, Muscarinic acetylcholine receptor M4 (Rattus norvegicus) (UniProt P08485)
T8 sequence (whole entry): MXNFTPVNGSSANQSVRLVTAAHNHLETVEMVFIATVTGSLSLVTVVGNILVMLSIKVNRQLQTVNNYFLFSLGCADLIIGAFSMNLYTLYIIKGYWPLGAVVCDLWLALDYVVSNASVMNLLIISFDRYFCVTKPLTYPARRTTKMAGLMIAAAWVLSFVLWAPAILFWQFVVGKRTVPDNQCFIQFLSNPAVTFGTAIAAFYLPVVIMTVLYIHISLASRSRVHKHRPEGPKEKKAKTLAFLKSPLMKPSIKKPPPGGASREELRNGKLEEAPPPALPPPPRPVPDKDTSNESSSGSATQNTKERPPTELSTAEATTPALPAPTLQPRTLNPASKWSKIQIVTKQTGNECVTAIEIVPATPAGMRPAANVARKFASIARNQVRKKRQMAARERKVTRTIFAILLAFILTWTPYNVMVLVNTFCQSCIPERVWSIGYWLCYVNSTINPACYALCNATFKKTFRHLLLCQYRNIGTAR
Description: Compound was evaluated for the affinity at the cloned radio labelled Muscarinic acetylcholine receptor M4

Rattus norvegicus [19] = species on record: Rattus norvegicus; test: Effective dose for LSD-like behavioral effect in rats; type: functional
[20] = target: T3, 5-hydroxytryptamine receptor 2C; test: Binding ability of compound at cloned human 5-hydroxytryptamine 2C receptor using [3H]- mesulergine as radioligand
[21] = target: T2, 5-hydroxytryptamine receptor 2B; test: Binding ability of compound at cloned human 5-hydroxytryptamine 2B receptor using [3H]rauwolscine as radioligand
[22] = target: T1, 5-hydroxytryptamine receptor 2A; test: Binding ability of compound at cloned human 5-hydroxytryptamine 2A receptor using [3H]ketanserin as radioligand
Rattus norvegicus [23] = test: Percentage of animals failing to emit 50 presses on either lever within the 15-min test period in rat at 0.04 mg/kg (0.093 uM/kg); type: functional
Rattus norvegicus [24] = test: Percentage of animals emitting 50 presses on the LSD appropriate lever during the test period in rat at 0.02 mg/kg(0.046 uM/kg); type: functional
Rattus norvegicus [25] = test: Percentage of animals failing to emit 50 presses on either lever within the 15-min test period in rat at 0.02 mg/kg(0.046 uM/kg); type: functional
Rattus norvegicus [26] = test: Percentage of animals emitting 50 presses on the LSD appropriate lever during the test period in rat at 0.01 mg/kg (0.023 uM/kg); type: functional
Rattus norvegicus [27] = test: Percentage of animals failing to emit 50 presses on either lever within the 15-min test period in rat at 0.08 mg/kg (0.186 uM/kg); type: functional
Rattus norvegicus [28] = test: Percentage of animals failing to emit 50 presses on either lever within the 15-min test period in rat at 0.01 mg/kg (0.023 uM/kg); type: functional
Rattus norvegicus [29] = test: Percentage of animals emitting 50 presses on the LSD appropriate lever during the test period in at 0.08 mg/kg (0.186 uM/kg); type: functional
Rattus norvegicus [30] = test: Percentage of animals emitting 50 presses on the LSD appropriate lever during the test period i8n at 0.04 mg/kg (0.093 uM/kg); type: functional

Sequence of 5-hydroxytryptamine receptor 2A (Rattus norvegicus, UniProt P14842) (P14842 whole entry): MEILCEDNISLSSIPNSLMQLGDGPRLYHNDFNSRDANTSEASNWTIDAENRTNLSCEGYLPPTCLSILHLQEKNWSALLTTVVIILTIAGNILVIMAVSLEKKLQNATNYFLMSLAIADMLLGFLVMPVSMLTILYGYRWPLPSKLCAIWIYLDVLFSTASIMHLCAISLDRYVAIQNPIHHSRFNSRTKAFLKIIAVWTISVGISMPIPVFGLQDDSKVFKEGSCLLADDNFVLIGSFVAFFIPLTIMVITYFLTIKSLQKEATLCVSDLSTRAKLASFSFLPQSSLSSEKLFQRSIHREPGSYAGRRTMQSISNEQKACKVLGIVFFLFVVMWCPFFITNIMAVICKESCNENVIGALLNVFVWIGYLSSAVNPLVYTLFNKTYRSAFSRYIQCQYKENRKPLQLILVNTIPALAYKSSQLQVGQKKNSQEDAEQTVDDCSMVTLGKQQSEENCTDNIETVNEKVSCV
T2 sequence (P41595 whole entry): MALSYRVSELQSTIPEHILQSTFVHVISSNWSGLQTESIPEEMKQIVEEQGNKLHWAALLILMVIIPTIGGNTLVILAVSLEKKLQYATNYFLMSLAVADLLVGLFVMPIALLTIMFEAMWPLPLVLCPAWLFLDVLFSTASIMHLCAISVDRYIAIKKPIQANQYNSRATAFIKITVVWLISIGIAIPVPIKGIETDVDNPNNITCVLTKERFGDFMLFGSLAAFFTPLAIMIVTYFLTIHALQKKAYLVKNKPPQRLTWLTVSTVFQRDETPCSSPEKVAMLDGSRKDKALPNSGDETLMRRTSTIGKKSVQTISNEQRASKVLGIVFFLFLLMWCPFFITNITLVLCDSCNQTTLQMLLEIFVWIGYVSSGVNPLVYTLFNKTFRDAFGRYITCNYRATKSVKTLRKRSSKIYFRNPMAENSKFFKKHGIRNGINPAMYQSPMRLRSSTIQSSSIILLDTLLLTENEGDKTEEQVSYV
T1 sequence (P28223 whole entry): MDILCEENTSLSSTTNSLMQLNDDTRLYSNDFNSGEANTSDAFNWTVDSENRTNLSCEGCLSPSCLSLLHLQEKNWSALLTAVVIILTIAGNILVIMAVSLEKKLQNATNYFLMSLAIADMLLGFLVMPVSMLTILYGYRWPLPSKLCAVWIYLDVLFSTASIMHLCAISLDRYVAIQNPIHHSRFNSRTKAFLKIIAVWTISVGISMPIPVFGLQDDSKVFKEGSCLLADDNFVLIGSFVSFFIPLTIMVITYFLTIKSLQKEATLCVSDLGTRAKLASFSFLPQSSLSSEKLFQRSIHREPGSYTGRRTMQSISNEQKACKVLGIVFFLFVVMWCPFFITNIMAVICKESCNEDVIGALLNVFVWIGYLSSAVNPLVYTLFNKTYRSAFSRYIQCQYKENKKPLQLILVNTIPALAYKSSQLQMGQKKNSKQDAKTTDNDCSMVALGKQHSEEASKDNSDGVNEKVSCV
Sequence of Muscarinic acetylcholine receptor M3 (Rattus norvegicus) (P08483 whole entry, looked up): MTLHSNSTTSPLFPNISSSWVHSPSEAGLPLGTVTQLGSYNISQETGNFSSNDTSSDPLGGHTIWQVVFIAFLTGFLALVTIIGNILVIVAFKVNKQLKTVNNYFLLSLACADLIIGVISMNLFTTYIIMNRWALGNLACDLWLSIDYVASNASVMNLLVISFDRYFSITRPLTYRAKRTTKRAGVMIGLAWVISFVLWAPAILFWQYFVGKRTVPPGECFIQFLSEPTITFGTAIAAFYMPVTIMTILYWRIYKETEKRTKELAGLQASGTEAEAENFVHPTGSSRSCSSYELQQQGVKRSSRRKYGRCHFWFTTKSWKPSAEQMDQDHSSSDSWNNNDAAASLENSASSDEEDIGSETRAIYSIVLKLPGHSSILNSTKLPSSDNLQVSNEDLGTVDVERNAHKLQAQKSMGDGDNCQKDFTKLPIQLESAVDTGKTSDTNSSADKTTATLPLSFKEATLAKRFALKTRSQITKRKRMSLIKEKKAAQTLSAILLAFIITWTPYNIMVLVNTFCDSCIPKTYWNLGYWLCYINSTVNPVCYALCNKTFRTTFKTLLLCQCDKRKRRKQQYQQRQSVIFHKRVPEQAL

SMILES | Ki [5] [nM] | Ki [6] [nM] | Ki [11] [nM] | Ki [12] [nM] | K 0.5 [13] [nM] | K 0.5 [14] [nM] | K 0.5 [15] [µM] | Ki [16] [nM] | K 0.5 [17] [nM] | K 0.5 [18] [nM] | ED50 (Rattus norvegicus [19]) | also measured
COc1cc(Br)c2c3c1C[C@H](N)C[C@H]3CO2 | 8500 | 11200 | 4190 | 3880 | – | – | – | – | – | – | – | SDL (Rattus norvegicus [1]): 27%; D (Rattus norvegicus [2]): 0%; D (Rattus norvegicus [3]): 0%; D (Rattus norvegicus [4]): 0%; D (Rattus norvegicus [7]): 11%; ED50 (Rattus norvegicus [8]): inactive; ED50 (Rattus norvegicus [9]): inactive; D (Rattus norvegicus [10]): 0%
COc1ccc2c3c1C[C@H](N(C)C)C[C@@H]3CO2 | – | – | – | 967 | 654 | 846 | 0.953 | 38000 | 1100 | 913 | – | –
COc1ccc2c3c1C[C@H](N)C[C@@H]3CO2 | – | – | – | – | 129 | 149 | 33.4 | – | 236 | 240 | – | –
C[C@@H](N)Cc1c2c(c(Br)c3c1OCC3)OCC2 | 0.48 | 1.6 | 0.3 | 18 | – | – | – | 4300 | – | – | 0.061 mg/kg | Ki [20]: 2.28 nM; Ki [21]: 1.15 nM; Ki [22]: 10.7 nM
CCN(CC)C(=O)[C@@H]1C=C2c3cccc4[nH]cc(c34)C[C@H]2N(C)C1 [LYSERGIDE] | – | – | – | – | – | – | – | – | – | – | 0.037 µmol/kg and 0.016 mg/kg | D (Rattus norvegicus [23]): 0%; SDL (Rattus norvegicus [24]): 62%; D (Rattus norvegicus [25]): 7%; SDL (Rattus norvegicus [26]): 31%; D (Rattus norvegicus [27]): 0%; D (Rattus norvegicus [28]): 0%; SDL (Rattus norvegicus [29]): 100%; SDL (Rattus norvegicus [30]): 81%
